Laboratory results: patent US6409716B1, “Drug delivery” (Scimed Life Systems, Inc., priority 1989, dated 2002)

Test system: intracoronary thrombus
Assay: Local delivery of urokinase from hydrogel-coated balloon during balloon angioplasty in patients
Type: in vivo
Settings: all 11 patients; balloon immersed in 50,000 units/ml; pressure in excess of 2 atmospheres; 1-2 inflations, 1-5 minutes
Method: To evaluate the efficacy of local delivery of urokinase during balloon angioplasty in treating intracoronary thrombus according to the invention, 11 patients were treated with hydrogel-coated balloons which had been immersed in a concentrated solution of urokinase (50,000 units/ml). Eight patients presented with acute myocardial infarctions, while the remaining three had unstable angina. Five patients had received intravenous thrombolytic therapy, including systemic thrombolysis. Conventional balloon angioplasty was initially performed in 9 of the 11 patients and was complicated either by acute thrombotic closure (n=7) or slow antegrade flow with the appearance of intracoronary thrombus (n=2). The remaining 2 patients had coronary stenoses with angiographic evidence of thrombus, but were not initially treated with conventional angioplasty.

In the case of urokinase, the “outcome of balloon dilatation with urokinase-impregnated, hydrogel-coated balloon” value was “reversal of abrupt closure and dissolution of intracoronary thrombus”.
